Experimental data from patent publication EP2150534B1, “ISOQUINOLINONE DERIVATIVES AS NK3 ANTAGONISTS” (H. Lundbeck A/S, priority 2007, dated 2008).
pIC50, pKi: −log10 of the molar value. Like-named read-outs stand apart in the source and are kept apart here.

Assays:
[1] = target: T1, human NK3 receptor (Homo sapiens, UniProt P29371); assay: NK3 receptor binding assay (SPA-based competition binding with 125I-NKB, membranes of BHK cells)
T1 construct: expressed in transfected cells; membranes prepared from them
T1 sequence (P29371 1-465): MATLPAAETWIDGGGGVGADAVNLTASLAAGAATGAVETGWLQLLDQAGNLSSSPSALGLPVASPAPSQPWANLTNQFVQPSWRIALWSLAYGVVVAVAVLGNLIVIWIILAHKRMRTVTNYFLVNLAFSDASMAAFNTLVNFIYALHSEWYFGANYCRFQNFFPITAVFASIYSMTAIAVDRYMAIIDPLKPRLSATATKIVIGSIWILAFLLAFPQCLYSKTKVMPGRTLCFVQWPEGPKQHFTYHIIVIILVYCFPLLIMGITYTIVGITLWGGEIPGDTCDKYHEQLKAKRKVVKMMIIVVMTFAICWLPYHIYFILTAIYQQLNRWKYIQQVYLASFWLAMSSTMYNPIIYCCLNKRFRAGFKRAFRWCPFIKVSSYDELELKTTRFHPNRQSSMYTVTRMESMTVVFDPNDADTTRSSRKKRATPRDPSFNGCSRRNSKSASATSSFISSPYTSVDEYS
Experimental: Membranepreparation: BHK cells stably expressing the human NK3 receptor were seeded in harvesting plates in Dulbeccos MEM containing GlutaMax (862 mg/l), 1 mM sodium pyruvate, 10% fetal calf serum, 1% Pen/Strep, I mg/ml G418 and were grown at 34 °C in a humidified atmosphere containing 10% CO2. To increase receptor expression, 10 µM trichotatin A was added to the media 24 hours before harvest of the cells at a confluency of app 90%. Prior to the harvesting, the cells were washed twice with PBS without Mg^2+ og Ca^2+ and subsequently scrapped of in 10 ml PBS pr harvesting plate. The cells suspension were centrifuged at 1500xG in three minutes before resuspension in 15 mM Tris-HCl pH 7,5 buffer containing 2 mM MgCl2; 0,3 mM EDTA and 1 mM EGTA (buffer A). The cell suspention was homogenised and subsequently centrifuged at 40000xG in 30 minutes. The membrane-pellet was resuspended in buffer A containing 250 mM sucrose, alliquoted and stored at - 80°C.
Affinity assay description: The assay was performed as a SPA-based competition-binding assay in a 50 mM Tris pH 7.4 assay buffer containing 120 mM NaCl, 3 mM MnCl2, 40 µg/ml bacitracin, 2 µg/ml Chymostatin, 1 µg/ml Phosphoramidon and 4 µg/ml Leupeptin. App 0.02 nM ^125I-NKB was mixed with test compounds before addition of 4 µg of the homogenised NK3 membrane preparation and 0,025 mg SPA beads in a total volume of 60 µl. The assay plate was subsequently under agitation incubated for 90 min at RT. The plate was centrifugated 10 minutes at 500xG and counted in a topcounter 5 minuttes pr well.
The non-specific binding constituted app 5 % of the total binding.
Data points were expressed in percent of the specific binding of ^125I-NKB and the IC50 values (concentration causing 50 percent inhibition of ^125I-NKB specific binding) were determined by non-linear regression analysis using a sigmoidal variable slope curve fitting. The dissociation constant (Ki) were calculated from the Cheng Prusoff equation (Ki = IG50/(1+(L/KD))), where the concentration of free radioligand L is approximated to the concentration of added ^125I-NKB in the assay (app 0,02 nM).
The KD of ^125I-NKB was determined to be 0,7 nM from three independent saturation assays each performed with duplicate determinations. Bmax was app 2 pmol/mg.

[2] = target: T1, human NK3 receptor; assay: NK3 receptor efficacy and potency assay (FLIPR Calcium 4 assay, BHK cells; agonist and antagonist mode versus NKB); assay type: cell-based; conditions: read-out: Potency cIC50
Experimental: BHK cells stably expressing the human NK3 receptor were seeded in 100 µl media in black walled clear-base 96-wells plates (Costar) aiming at a confluency of 95-100% at the day of assay. The assay was performed according to the FLIPR Calcium 4 Assay kit (Molecular Devices). At the day of the assay, the media was removed and the cells were washed once with the HBSS buffer (Hanks BSS buffer, pH 7,4 containing 20 mM Hepes) before 100 µl of a solution of the calcium assay reagent dissolved in the HBSS buffer containing 2,5 mM probinicid was added to the cells. The plates were incubated for 60 min at 34°C, 10% CO2 before use in the FLIPR for examination of fluorescence.
For efficacy and potency evaluation of compounds, these were diluted in HBSS buffer prior to test. For test of agonist activity, 25 µl of the diluted compound solution was added and the plate was analyzed for 5 minutes in the FLIPR. […] The plates were subsequently analyzed for 5 minutes before the assay was terminated. The maximal increase in fluorescence over background following each ligand addition was determined.

[3] = table of Example 10, affinity obtained as described in Example 9, read-out: Affinity Ki

Row | SMILES | pKi [1, 3] | pIC50 [2] | pKi ([1]; Ki for the NK3 receptor, table of Example 9, 125I-NKB competition binding, read-out: Ki)
1 | O=C(NC(c1cccc(F)c1)C1CC1)c1c(CN2CCC(O)(c3ccncc3)CC2)n(-c2ccccc2)c(=O)c2ccccc12 (stereo not drawn) [Example 2hx, 3-(4-Hydroxy-3,4,5,6-tetrahydro-2H-[4,4']bipyridinyl-1-ylmethyl)-1-oxo-2-phenyl-1,2-dihydro-isoquinoline-4-carboxylic acid [cyclopropyl-(3-fluoro-phenyl)-methyl]-amide] | 8.03 | 7.17 | –
2 | CCC(CO)NCc1c(C(=O)N[C@@H](CC)c2ccccc2)c2ccccc2c(=O)n1-c1ccccc1 (stereo partly drawn) [Example 2eg, 3-[(1-Hydroxymethyl-propylamino)-methyl]-1-oxo-2-phenyl-1,2-dihydro-isoquinoline-4-carboxylic acid ((S)-1-phenyl-propyl)-amide] | 6.62 | 6.21 | –
3 | CC[C@H](NC(=O)c1c(CNCC2CC2)n(-c2ccccc2)c(=O)c2ccccc12)c1ccccc1 [Example 2e, 3-[(Cyclopropylmethyl-amino)-methyl]-1-oxo-2-phenyl-1,2-dihydro-isoquinoline-4-carboxylic acid ((S)-1-phenyl-propyl)-amide] | 6.48 | 6.33 | –
4 | CC[C@H](NC(=O)c1c(CN2CCC2)n(-c2ccccc2)c(=O)c2ccccc12)c1ccccc1 [Example 2ey, 3-Azetidin-1-ylmethyl-1-oxo-2-phenyl-1,2-dihydro-isoquinoline-4-carboxylic acid ((S)-1-phenyl-propyl)-amide] | 6.62 | 6.32 | –

Further lines, results first:

Row | pKi [1, 3] | pIC50 [2] | pKi ([1]; Ki for the NK3 receptor, table of Example 9, 125I-NKB competition binding, read-out: Ki) | SMILES
5 | 7.68 | 7.09 | – | Cc1c(C(=O)N[C@H](c2cccc(F)c2)C2CCC2)c2cccc(Cl)c2c(=O)n1-c1ccccc1 [Example 1bh, 8-Chloro-3-methyl-1-oxo-2-phenyl-1,2-dihydro-isoquinoline-4-carboxylic acid [(S)-cyclobutyl-(3-fluoro-phenyl)-methyl]-amide]
6 | 7.05 | 7.02 | – | CC[C@H](NC(=O)c1c(CN2CCC3(CC2)OCCO3)n(-c2ccccc2)c(=O)c2ccccc12)c1ccccc1 [Example 2u, 3-(1,4-Dioxa-8-aza-spiro[4.5]dec-8-ylmethyl)-1-oxo-2-phenyl-1,2-dihydro-isoquinoline-4-carboxylic acid ((S)-1-phenyl-propyl)-amide]
7 | 7.06 | 6.57 | 7.14 | CC[C@H](NC(=O)c1c(CN2CCCC2=O)n(-c2ccccc2)c(=O)c2ccccc12)c1ccccc1 [Example 3a, 1-Oxo-3-(2-oxo-pyrrolidin-1-ylmethyl)-2-phenyl-1,2-dihydro-isoquiline-4-carboxylic acid ((S)-1-phenyl-propyl)-amide]
8 | 8.08 | 7.35 | – | CC[C@H](NC(=O)c1c(CN2CCC(CCN3CCOCC3)CC2)n(-c2ccccc2)c(=O)c2ccccc12)c1ccccc1 [Example 2cw, 3-[4-(2-Morpholin-4-yl-ethyl)-piperidin-1-ylmethyl]-1-oxo-2-phenyl-1,2-dihydro-isoquinoline-4-carboxylic acid ((S)-1-phenyl-propyl)-amide]
9 | 7.57 | 7.36 | – | Cc1c(C(=O)N[C@H](c2cccc(F)c2)C2CC2)c2cccc(Cl)c2c(=O)n1-c1ccccc1 [Example 1t, 8-Chloro-3-methyl-1-oxo-2-phenyl-1,2-dihydro-isoquinoline-4-carboxylic acid [(S)-cyclopropyl-(3-fluoro-phenyl)-methyl]-amide]
10 | 6.80 | 6.66 | – | CC[C@H](NC(=O)c1c(CN2CCN(CCN3CCCC3)CC2)n(-c2ccccc2)c(=O)c2ccccc12)c1ccccc1 [Example 2bq, 1-Oxo-2-phenyl-3-[4-(2-pyrrolidin-1-yl-ethyl)-pipcrazin-1-ylmethyl]-1,2-dihydro-isoquinolinc-4-carboxylic acid ((S)-1-phenyl-propyl)-amide]
